Results from patent publication US6218427A, “Chromene-3-carboxylate derivatives” (Shionogi & Co., Ltd., priority 1996, dated 2001).
Blank lines part the entries; values can stand above or below the compound they belong to.

Columns and labels:
foam cells = conditions: American Journal of Pathology vol. 146, No.4, 819-826 (1995); cited from earlier work
[1] = target: T1, endothelin B (ETB) receptor (Sus scrofa, UniProt P35463); experiment: Measurement of affinity for endothelin B (ETB) receptor: inhibition of 125I-labeled endothelin-3 binding to COS-7 cells expressing pig ETB receptor; conditions: 125I-endothelin-3 25 pM, 37° C., 1 h
T1 construct: expressed in transfected cells; host or cells: COS-7
T1 sequence (P35463 27-443): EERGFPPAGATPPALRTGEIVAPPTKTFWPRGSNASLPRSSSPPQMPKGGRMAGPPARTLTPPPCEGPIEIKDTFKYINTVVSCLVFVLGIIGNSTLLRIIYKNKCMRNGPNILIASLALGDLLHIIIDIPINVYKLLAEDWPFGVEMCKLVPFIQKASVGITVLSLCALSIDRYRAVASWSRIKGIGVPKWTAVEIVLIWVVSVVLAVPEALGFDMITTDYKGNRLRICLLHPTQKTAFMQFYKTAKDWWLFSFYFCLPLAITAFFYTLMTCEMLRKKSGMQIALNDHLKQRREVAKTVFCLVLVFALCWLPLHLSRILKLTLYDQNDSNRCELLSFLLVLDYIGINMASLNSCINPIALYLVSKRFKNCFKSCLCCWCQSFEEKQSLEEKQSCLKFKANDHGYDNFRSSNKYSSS
Description: Experiment 2 Measurement of affinity for endothelin B (ETB) receptor
Affinities for the ETB receptor were measured from the potency for inhibiting ^125 I-labeled endothelin-3 binding to COS-7 cells expressing the pig endothelin ETB receptor. In brief, a plasmid vector to which the pig endothelin ETB receptor gene was inserted was transfected to COS-7 cells by the lipofectin method. After the cells were washed with buffer, 10^3 -10^4 cells were dispersed in HEPES buffered Hanks' solution (0.1 ml) containing 25 pM of 125I labeled endothelin-3 and various kinds of protease inhibitors and incubated in the presence or absence of the compound of the present invention at 37° C. for 1 h. After completion of the reaction, the radioactivity bound was trapped by a glass fiber filter and measured with a gamma counter. Specific binding was calculated by subtracting the non-specific binding measured in the presence of 10^-7 M non-radioactive endothelin-3 from the total binding.

[2] = target: T2, endothelin A (ETA) receptor (Rattus norvegicus, UniProt P26684); experiment: Measurement of affinity for endothelin A (ETA) receptor: inhibition of 125I-labeled endothelin-1 binding to A7r5 cells; conditions: 125I-endothelin-1 8.3 pM, A7r5 cells derived from rat aorta, 37° C., 1 h
T2 construct: smooth muscle A7r5 cells derived from rat aorta; endogenous in cells; host or cells: A7r5 (rat aorta smooth muscle cells)
T2 sequence (P26684 21-426): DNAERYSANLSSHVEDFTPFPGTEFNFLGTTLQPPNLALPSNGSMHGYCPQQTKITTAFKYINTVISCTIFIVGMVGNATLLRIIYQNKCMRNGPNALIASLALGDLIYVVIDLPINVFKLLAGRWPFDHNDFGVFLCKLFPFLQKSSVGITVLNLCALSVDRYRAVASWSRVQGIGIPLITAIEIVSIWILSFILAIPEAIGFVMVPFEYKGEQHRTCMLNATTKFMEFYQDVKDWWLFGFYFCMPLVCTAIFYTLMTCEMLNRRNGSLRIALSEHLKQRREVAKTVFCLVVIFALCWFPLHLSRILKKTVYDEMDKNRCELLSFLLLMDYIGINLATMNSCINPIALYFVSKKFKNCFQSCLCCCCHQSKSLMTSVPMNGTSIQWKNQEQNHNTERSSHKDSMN
Description: Experiment 1 Measurement of affinity for endothelin A (ETA) receptor
Affinities for the ETA receptor were measured from the potency for inhibition of binding of ^125 I-labeled endotheline-1 to smooth muscle A7r5 cells derived from rat aorta. In brief, the cells cultured in 48-well plates were washed with buffer, and incubated in 0.3 ml of Hepes buffered Hanks' solution containing labeled endothelin-1 (8.3 pM) and various kinds of protease inhibitors in the presence or absence of the compound of the present invention at 37° C. for 1 h. The incubation was terminated by rapid removal of the incubation medium and the cells were washed with a HEPES buffered Hanks' solution. The radioactivity of ^125 I-labeled endothelin-1 bound to the cells was determined with a gamma-counter. The specific binding was calculated by subtracting the non-specific binding which was determined in the presence of 10^-7 M non radioactive endothelin-1 from the total binding.

[3] = Effect on peripheral circulatory insufficiency (tail blood flow after 3° C. immersion); type: in vivo, Wistar rats
Description: Experiment 4 Effect on peripheral circulatory insufficiency
Using Wistar rats, the peripheral circulatory insufficiency model was produced by immersing the rat tail tip (2-3 cm) in 1° C. water for 9 h, and experiments were performed at 3 weeks after above treatment. Tail blood flows in peripheral circulatory insufficiency rats were measured with laser-Doppler flowmetry with a tablet probe during immersing the whole tail in 3° C. water (30 min) The probe was held directly adjacent to the ventral surface of the tail, approximately 14 cm from the tip. To evaluate the effects of the compound of the present invention, peripheral circulatory insufficiency rats administered by the compound of the present invention (I-36, 30 mg/kg, po) at 2 h before 3° C. immersion.
In the normal Wistar rats, tail blood flow was transiently declined after 3° C. immersion, and gradually recovered up to about 70 % of basal level at 25 to 30 min after the immertion (normal rat). On the other hand, in the peripheral circulatory insufficiency rats, the tail blood flow measured immediately before administration of the compound of the present invention recovered to no more than 40% of basal level (peripheral circulatory insufficiency rat). […] Three days after administration of the compound of the present invention, when the circulatory effects of the compound was supposed to fully disappear, tail blood flows during 3° C. immersion were measured again. […] For statistic analysis, Dunnett's test was used.

macrophage foam cell = experiment: Inhibition of macrophage foam cell formation in high-cholesterol-diet hamsters (aortic arch); type: in vivo, golden Syrian hamster; conditions: 6 weeks, 8 hamsters, p < 0.01 vs HCD group (HCD 25.7 ± 2.7)
Excerpt: Experiment 3 Inhibition of macrophage foam cell formation
Male golden Syrian hamster of 12 weeks old, were used for the experiment. Hamsters were classified into a group wherein hamsters were fed with usual powder diet (OD group), a group wherein hamsters were fed with diet containing high cholesterol (2%) (HCD group) and a group wherein hamsters were fed with diet containing high cholesterol (2%) and the compound I-36 of the present invention (HCD +I-36 group) and animals in each group were fed for 6 weeks. The added amount of the compound 1-36 of the present invention was 0.01, 0.03 and 0.1% and they were equivalent to 6, 19, 66 mg/kg, respectively, calculated from food intake. Each group contains 8 hamsters.
After feeding for 6 weeks, hamsters were anesthetized with pentobarbital and subjected to thoracotomy to expose a heart. Arch of the aorta was removed after reperfusion with phosphate-buffered 10% formalin solution from the ventricle. The arch of the aorta was opened longitudinally and the number of foam cells in a microphotograph after staining with oil red O was counted with a colony counter to calculate the number per aortic arch area. The significant difference between the groups was examined by Dunnett's multiple comparison test.

SMILES: Cc1noc(NS(=O)(=O)c2cccc3c(N(C)C)cccc23)c1C [BMS-182874]
- number and size of foam cells (foam cells): reduce the number and size of foam cells

SMILES: COc1ccc(C2=C(C(=O)O)C(c3ccc4c(c3)OCO4)Oc3ccc(OC(C)C)cc32)cc1 (stereo not drawn) [Compound I-36, 2-(Benz[1,3]dioxol-5-yl)-6-isopropoxy-4-(4-methoxy-phenyl)-2H-chromen-3-carboxylic acid]
- IC50 [1]: 180 nM
- IC50 [2]: 0.89 nM
- skin blood flow (%), average from 20-25 min after cold exposure ([3]; insufficiency rat + I-36, 30 mg/kg, po, 2 h before 3° C. immersion, n = 4, p < 0.01 vs insufficiency rat control (37.20 ± 3.29)): 62.02 ± 1.23%
- recovery of the tail blood flow ([3]; insufficiency rat + I-36, 30 mg/kg, po, in words): remarkable and significant
- recovery of the blood flow after wash out ([3]; three days after administration of I-36, in words): same as that before administration
- skin blood flow (%), average from 20-25 min after cold exposure ([3]; wash out: three days after administration of I-36, n = 4): 44.19 ± 5.83%
- Aortic foam cell numbers / mm^2 (Mean ± SE) (macrophage foam cell; HCD + 0.01% I-36 in diet (equivalent to 6 mg/kg)): 10.1 ± 1.7 / mm^2
- Aortic foam cell numbers / mm^2 (Mean ± SE) (macrophage foam cell; HCD + 0.03% I-36 in diet (equivalent to 19 mg/kg)): 9.1 ± 0.8 / mm^2
- Aortic foam cell numbers / mm^2 (Mean ± SE) (macrophage foam cell; HCD + 0.1% I-36 in diet (equivalent to 66 mg/kg)): 8.8 ± 1.1 / mm^2

SMILES: C=CCCCOC1=C(C(=O)O)C(c2ccc3c(c2)OCO3)Oc2ccc(OC(C)C)cc21 (stereo not drawn) [Compound I-65, 2-(Benzo[1,3]dioxol-5-yl)-6-isopropoxy-4-(4-pentenyloxy-1-yl)-2H-chromen-3-carboxylic acid]
- IC50 [1]: 130 nM
- IC50 [2]: 0.38 nM

SMILES: CC(C)Oc1ccc2c(c1)C(OCCCCCO)=C(C(=O)O)C(c1ccc3c(c1)OCO3)O2 (stereo not drawn) [Compound I-68]
- IC50 [1]: 880 nM
- IC50 [2]: 0.95 nM

SMILES: COC(CCCOC1=C(C(=O)O)C(c2ccc3c(c2)OCO3)Oc2ccc(OC(C)C)cc21)OC (stereo not drawn) [Compound I-70]
- IC50 [1]: 270 nM
- IC50 [2]: 1.2 nM

SMILES: COc1ccc(OC2=C(C(=O)O)C(c3ccc4c(c3)OCO4)Oc3ccc(OC(C)C)cc32)cc1 (stereo not drawn) [Compound I-74, 2-(Benzo[1,3]dioxol-5-yl)-6-isopropoxy-4-(4-methoxy-phenoxy)-2H-chromen-3-carboxylic acid]
- IC50 [1]: 58 nM
- IC50 [2]: 0.21 nM

SMILES: CC(C)Oc1ccc2c(c1)C(C1CCCC1)=C(C(=O)O)C(c1ccc3c(c1)OCO3)O2 (stereo not drawn) [Compound I-79, 2-(Benzo[1,3]dioxol-5-yl)-4-cyclopentyl-6-isopropoxy-2H-chromen-3-carboxylic acid]
- IC50 [1]: 350 nM
- IC50 [2]: 0.53 nM

SMILES: Cc1ccc(C2=C(C(=O)O)C(c3ccc4c(c3)OCO4)Oc3ccc(OC(C)C)cc32)s1 (stereo not drawn) [Compound I-80, 2-(Benzo[1,3]dioxol-5-yl)-6-isopropoxy-4-(5-methyl-thiophen-2-yl)-2H-chromen-3-carboxylic acid]
- IC50 [1]: 1800 nM
- IC50 [2]: 1 nM

SMILES: COc1ccc(CC2=C(C(=O)O)C(c3ccc4c(c3)OCO4)Oc3ccc(OC(C)C)cc32)cc1 (stereo not drawn) [Compound I-81, 2-(Benzo[1,3]dioxol-5-yl)-6-isopropoxy-4-(4-methoxy-benzyl)-2H-chromen-3-carboxylic acid]
- IC50 [1]: 85 nM
- IC50 [2]: 0.5 nM

SMILES: CC(C)Oc1ccc2c(c1)C(CC1CCCCC1)=C(C(=O)O)C(c1ccc3c(c1)OCO3)O2 (stereo not drawn) [Compound I-85]
- IC50 [1]: 46 nM
- IC50 [2]: 0.58 nM

Further lines, results first:

- IC50 [1]: 1300 nM
- IC50 [2]: 1.5 nM
SMILES: CCCOC1=C(C(=O)O)C(c2ccc3c(c2)OCO3)Oc2ccc(OC(C)C)cc21 (stereo not drawn) [Compound I-56]

- IC50 [1]: 780 nM
- IC50 [2]: 0.41 nM
SMILES: CCCCOC1=C(C(=O)O)C(c2ccc3c(c2)OCO3)Oc2ccc(OC(C)C)cc21 (stereo not drawn) [Compound I-57]

- IC50 [1]: 150 nM
- IC50 [2]: 0.48 nM
SMILES: CCCCCOC1=C(C(=O)O)C(c2ccc3c(c2)OCO3)Oc2ccc(OC(C)C)cc21 (stereo not drawn) [Compound I-58]

- IC50 [1]: 730 nM
- IC50 [2]: 0.81 nM
SMILES: CC(C)OC1=C(C(=O)O)C(c2ccc3c(c2)OCO3)Oc2ccc(OC(C)C)cc21 (stereo not drawn) [Compound I-59]

- IC50 [1]: 78 nM
- IC50 [2]: 0.67 nM
SMILES: CCCCCCOC1=C(C(=O)O)C(c2ccc3c(c2)OCO3)Oc2ccc(OC(C)C)cc21 (stereo not drawn) [Compound I-67]

- IC50 [1]: 610 nM
- IC50 [2]: 0.73 nM
SMILES: CCCCC1=C(C(=O)O)C(c2ccc3c(c2)OCO3)Oc2ccc(OC(C)C)cc21 (stereo not drawn) [Compound I-76]

- IC50 [1]: 150 nM
- IC50 [2]: 0.32 nM
SMILES: CCCCCC1=C(C(=O)O)C(c2ccc3c(c2)OCO3)Oc2ccc(OC(C)C)cc21 (stereo not drawn) [Compound I-77, 2-(Benzo[1,3]dioxol-5-yl)-6-isopropoxy-4-pentyl-2H-chromen-3-carboxylic acid]

- IC50 [1]: 2500 nM
- IC50 [2]: 0.63 nM
SMILES: CC(C)Oc1ccc2c(c1)C(C(C)C)=C(C(=O)O)C(c1ccc3c(c1)OCO3)O2 (stereo not drawn) [Compound I-78]

- IC50 [1]: 69 nM
- IC50 [2]: 0.62 nM
SMILES: CCCCCCC1=C(C(=O)O)C(c2ccc3c(c2)OCO3)Oc2ccc(OC(C)C)cc21 (stereo not drawn) [Compound I-82]

- IC50 [1]: 480 nM
- IC50 [2]: 1.9 nM
SMILES: CC(C)CCC1=C(C(=O)O)C(c2ccc3c(c2)OCO3)Oc2ccc(OC(C)C)cc21 (stereo not drawn) [Compound I-83]

- IC50 [1]: 710 nM
- IC50 [2]: 1.8 nM
SMILES: COCCCC1=C(C(=O)O)C(c2ccc3c(c2)OCO3)Oc2ccc(OC(C)C)cc21 (stereo not drawn) [Compound I-84]

- IC50 [1]: 950 nM
- IC50 [2]: 2.7 nM
SMILES: C=CCCC1=C(C(=O)O)C(c2ccc3c(c2)OCO3)Oc2ccc(OC(C)C)cc21 (stereo not drawn) [Compound I-86]

- IC50 [1]: 1800 nM
- IC50 [2]: 2.3 nM
SMILES: CC(C)Oc1ccc2c(c1)C(CCCCO)=C(C(=O)O)C(c1ccc3c(c1)OCO3)O2 (stereo not drawn) [Compound I-87]

- IC50 [1]: 100 nM
- IC50 [2]: 0.27 nM
SMILES: CCCCSC1=C(C(=O)O)C(c2ccc3c(c2)OCO3)Oc2ccc(OC(C)C)cc21 (stereo not drawn) [Compound I-89, 2-(Benzo[1,3]dioxol-5-yl)-4-butylsulfanyl-6-isopropoxy-2H-chromen-3-carboxylic acid]
